According to PMC7796287, “Phloroglucinol Derivatives from Dryopteris crassirhizoma as Potent Xanthine Oxidase Inhibitors” (Molecules, 2020):
Where two headings read alike, the source gives them in different places.

Tests used:
xanthine oxidase (XO) = biological target: T1, xanthine oxidase (XO) (Bos taurus, UniProt P80457); assay: Assay of XO-inhibitory activity and kinetics (oxidation of xanthine to uric acid, absorbance at 295 nm); type: biochemical, bovine milk; conditions: for Xanthine Oxidase Kinetic Mode / Ki: Lineweaver–Burk and Dixon plots; for inhibition at 25 µM: read-out: Xanthine Oxidase Inhibition %; for Ki: read-out: Xanthine Oxidase Ki (inhibition constant); for IC50: isolated compounds and positive controls, substrate xanthine, pH 7.5, 37 °C
T1 construct: 20 µL of 0.1 unit XO enzyme (bovine milk) in buffer; from tissue; host or cells: bovine milk
T1 sequence (P80457 whole entry): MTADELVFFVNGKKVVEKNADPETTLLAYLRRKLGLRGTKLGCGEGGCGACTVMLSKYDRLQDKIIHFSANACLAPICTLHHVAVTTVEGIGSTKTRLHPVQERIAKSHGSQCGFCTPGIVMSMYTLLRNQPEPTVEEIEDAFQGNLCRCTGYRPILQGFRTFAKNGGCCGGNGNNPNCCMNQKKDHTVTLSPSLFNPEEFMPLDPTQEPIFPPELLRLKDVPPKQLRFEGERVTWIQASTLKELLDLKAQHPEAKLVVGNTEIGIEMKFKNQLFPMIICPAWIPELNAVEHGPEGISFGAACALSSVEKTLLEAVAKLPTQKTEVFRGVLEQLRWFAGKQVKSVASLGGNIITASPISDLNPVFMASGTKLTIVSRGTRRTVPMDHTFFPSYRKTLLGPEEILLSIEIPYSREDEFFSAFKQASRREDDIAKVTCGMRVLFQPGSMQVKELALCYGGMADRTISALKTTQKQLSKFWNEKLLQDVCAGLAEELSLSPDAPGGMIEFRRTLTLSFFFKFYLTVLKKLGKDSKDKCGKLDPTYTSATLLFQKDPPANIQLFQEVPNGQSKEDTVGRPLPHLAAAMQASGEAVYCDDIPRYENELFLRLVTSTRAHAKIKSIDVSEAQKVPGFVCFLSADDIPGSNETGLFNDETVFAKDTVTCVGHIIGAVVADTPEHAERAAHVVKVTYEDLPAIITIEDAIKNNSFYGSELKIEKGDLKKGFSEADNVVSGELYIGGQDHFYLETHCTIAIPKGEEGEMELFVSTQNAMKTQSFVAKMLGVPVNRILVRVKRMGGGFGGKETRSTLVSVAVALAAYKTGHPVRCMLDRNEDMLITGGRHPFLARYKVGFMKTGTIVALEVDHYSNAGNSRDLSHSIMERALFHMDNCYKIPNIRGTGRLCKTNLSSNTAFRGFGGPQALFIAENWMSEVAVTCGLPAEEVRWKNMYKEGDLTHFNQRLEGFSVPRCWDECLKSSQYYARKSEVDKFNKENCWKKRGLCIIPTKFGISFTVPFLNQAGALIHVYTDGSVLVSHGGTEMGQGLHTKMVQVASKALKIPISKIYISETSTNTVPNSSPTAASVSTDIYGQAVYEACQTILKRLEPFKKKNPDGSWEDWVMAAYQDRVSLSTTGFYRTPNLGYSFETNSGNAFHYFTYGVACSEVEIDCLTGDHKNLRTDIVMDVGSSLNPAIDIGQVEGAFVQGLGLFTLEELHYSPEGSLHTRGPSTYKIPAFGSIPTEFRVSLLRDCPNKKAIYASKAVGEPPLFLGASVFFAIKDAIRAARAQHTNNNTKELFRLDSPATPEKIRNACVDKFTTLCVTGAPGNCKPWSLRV
Procedure: The extracts from four different polar solvents (EtOAc, MeOH, 50% MeOH, and H2O) were tested for their enzyme-inhibitory activities against XO. The enzyme assay followed the oxidation of xanthine to uric acid at 295 nm spectrophotometrically. […] In addition to ^13C-NMR data, various spectroscopic data were used to identify the structures. […]
XO-inhibitory activity was assayed spectrophotometrically on a SpectraMax M2 microplate reader, using a previously reported experimental procedure with a slight modification. First, 135 µL of 100 mM sodium pyrophosphate buffer (HCl, pH 7.5), 20 µL of 0.1 unit XO enzyme (bovine milk) in buffer, and 5 µL of samples (test extracts or compounds) in dimethylsulfoxide were mixed at 37 °C. The reaction was started by adding 40 µL of substrate (0.5 mM xanthine) in buffer to the mixture. The reaction mixture (200 µL) was incubated at 37 °C in a 300 µL well plate and the UV absorbance at 295 nm was determined every 1 min up to 5 min.

Xanthine Oxidase Kinetic Mode (xanthine oxidase (XO)) | Ki (xanthine oxidase (XO)) | efficacy of 1 relative to 4 (fold, from IC50) (xanthine oxidase (XO); XO inhibition, compared with 4 (IC50 = 20.9 µM)) | Reversibility of XO inhibition (xanthine oxidase (XO); activity versus enzyme concentration (0-0.2 units/mL) at different inhibitor concentrations) | IC50 (xanthine oxidase (XO)) | inhibition at 25 µM (xanthine oxidase (XO); sample concentration 25 µM) | melting point | Compound | inhibition at 25 µM (xanthine oxidase (XO))
noncompetitive inhibitor | 7.8 µM | ~4 fold | reversible inhibitor | 6.3 ± 0.4 µM | 79.6 ± 1.6% | – | CCC(=O)c1c(O)c(C)c(O)c(CC2=C(O)C(C)(C)C(O)=C(C(C)=O)C2=O)c1O [Compound 1, flavaspidic acid AP] | –
Noncompetitive | 11.7 µM | – | – | 10.2 ± 0.5 µM | 68.1 ± 1.3% | 158 to 160 °C | CCCC(=O)c1c(O)c(C)c(O)c(CC2=C(O)C(C)(C)C(O)=C(C(C)=O)C2=O)c1O [Compound 2, flavaspidic acid AB] | –

The remaining lines, values behind:

Compound | Xanthine Oxidase Kinetic Mode (xanthine oxidase (XO)) | Ki (xanthine oxidase (XO)) | efficacy of 1 relative to 4 (fold, from IC50) (xanthine oxidase (XO); XO inhibition, compared with 4 (IC50 = 20.9 µM)) | Reversibility of XO inhibition (xanthine oxidase (XO); activity versus enzyme concentration (0-0.2 units/mL) at different inhibitor concentrations) | IC50 (xanthine oxidase (XO)) | inhibition at 25 µM (xanthine oxidase (XO); sample concentration 25 µM) | melting point | inhibition at 25 µM (xanthine oxidase (XO))
Oc1ncnc2[nH]ncc12 [Allopurinol, reference compound] | Competitive | – | – | – | – | – | – | 82.5 ± 1.7%
CCCC(=O)c1c(O)c(C)c(O)c(CC2=C(O)C(C)(C)C(O)=C(C(=O)CC)C2=O)c1O [Compound 3, flavaspidic acid PB] | Noncompetitive | 15.3 µM | – | – | 13.2 ± 0.6 µM | 62.1 ± 0.9% | 156 to 158 °C | –
CCCC(=O)C1=C(O)C(C)(C)C(O)=C(Cc2c(O)c(C)c(O)c(C(=O)CCC)c2O)C1=O [Compound 4, 2-butyryl-6-(3-butyryl-2,4,6-trihydroxy-5-methylbenzyl)-3,5-dihydroxy-4,4-dimethylcyclohexa-2,5-dienone] | Noncompetitive | 21.1 µM | – | – | 20.9 ± 0.9 µM | 54.4 ± 1.5% | – | –
O=c1[nH]c(=O)c2c[nH]nc2[nH]1 [Oxypurinol, reference compound] | – | – | – | – | 43.1 ± 0.8 µM | 42.2 ± 1.2% | – | –
